Reference: US20050032873A1, “3-Amino chroman and 2-amino tetralin derivatives” (Wyeth, priority 2003, published 2005)
Where a name gives a salt, the structure may show the parent alone.

melting point	Structure (SMILES)
105 °C (dec.)	COc1cccc2c1CC(N(CCCc1c[nH]c3ccc(F)cc13)C(C)C)CO2 (stereo not drawn) (as salt: hydrochloride) [Compound 40, N-[3-(5-fluoro-1H-indol-3-yl)propyl]-N-isopropyl-N-(5-methoxy-3,4-dihydro-2H-chromen-3-yl)amine]
115 °C (dec.)	COc1cccc2c1CC(N(CCCc1c[nH]c3ccc(F)cc13)C1CC1)CO2 (stereo not drawn) (as salt: hydrochloride) [Compound 41, N-cyclopropyl-N-[3-(5-fluoro-1H-indol-3-yl)propyl]-N-(5-methoxy-3,4-dihydro-2H-chromen-3-yl)amine]
115 °C (dec.)	COc1cccc2c1CC(N(CCCc1c[nH]c3ccc(F)cc13)CC1CCC1)CO2 (stereo not drawn) (as salt: hydrochloride) [Compound 42, N-(cyclobutylmethyl)-N-[3-(5-fluoro-1H-indol-3-yl)propyl]-N-(5-methoxy-3,4-dihydro-2H-chromen-3-yl)amine]
107 to 110 °C	COc1cccc2c1CC(N(CCCc1c[nH]c3ccccc13)CC1CC1)CO2 (stereo not drawn) (as salt: hydrochloride) [Compound 43, N-(cyclopropylmethyl)-N-[3-(1H-indol-3-yl)propyl]-N-(5-methoxy-3,4-dihydro-2H-chromen-3-yl)amine]
113 to 117 °C	COc1cccc2c1CC(N(CCCc1c[nH]c3ccccc13)C1CCC1)CO2 (stereo not drawn) (as salt: hydrochloride) [Compound 44, N-cyclobutyl-N-[3-(1H-indol-3-yl)propyl]-N-(5-methoxy-3,4-dihydro-2H-chromen-3-yl)amine]
123 to 127 °C (dec.)	COc1cccc2c1CC(N(CCCc1c[nH]c3ccc(C#N)cc13)CC1CC1)CO2 (stereo not drawn) (as salt: hydrochloride) [Compound 45, 3-{3-[(cyclopropylmethyl)(5-methoxy-3,4-dihydro-2H-chromen-3-yl)amino]propyl}-1H-indole-5-carbonitrile]
133 to 137 °C	COc1cccc2c1CC(N(CCCc1c[nH]c3ccc(C#N)cc13)C1CCC1)CO2 (stereo not drawn) (as salt: hydrochloride) [Compound 46, 3-{3-[cyclobutyl(5-methoxy-3,4-dihydro-2H-chromen-3-yl)amino]propyl}-1H-indole-5-carbonitrile]
107 °C (dec.)	CCCN(CCCc1c[nH]c2ccc(F)cc12)[C@H]1CCc2cccc(OC)c2C1 (as salt: hydrochloride) [Compound 47a, (−)-N-[3-(5-fluoro-1H-indol-3-yl)propyl]-8-methoxy-N-propyl-1,2,3,4-tetrahydronaphthalen-2-amine]
110 °C (dec.)	CCCN(CCCc1c[nH]c2ccc(F)cc12)[C@@H]1CCc2cccc(OC)c2C1 (as salt: hydrochloride) [Compound 47b, (2R)-N-[3-(5-fluoro-1H-indol-3-yl)propyl]-8-methoxy-N-propyl-1,2,3,4-tetrahydronaphthalen-2-amine]
108 °C (dec.)	CCCN(CCCc1c[nH]c2ccccc12)C1CCc2cccc(OC)c2C1 (stereo not drawn) (as salt: hydrochloride) [Compound 50, N-[3-(1H-indol-3-yl)propyl]-8-methoxy-N-propyl-1,2,3,4-tetrahydronaphthalen-2-amine]

Structure (SMILES)	melting point
CCCN(CCc1c[nH]c2ccc(F)cc12)C1CCc2cccc(OC)c2C1 (stereo not drawn) (as salt: hydrochloride) [Compound 48, N-[2-(5-fluoro-1H-indol-3-yl)ethyl]-N-(8-methoxy-1,2,3,4-tetrahydronaphthalen-2-yl)-N-propylamine]	105 °C (dec.)
CCN(CCc1c[nH]c2ccc(F)cc12)C1CCc2cccc(OC)c2C1 (stereo not drawn) (as salt: hydrochloride) [Compound 49, N-ethyl-N-[2-(5-fluoro-1H-indol-3-yl)ethyl]-N-(8-methoxy-1,2,3,4-tetrahydronaphthalen-2-yl)amine]	114 °C (dec.)
